Read-outs that look alike come from different tables or passages of the source.
How the values were obtained:
[1] = system: HepG2 cells; assay: Stimulation of collagen expression (cDNA microarray), Apomine treated versus control HepG2 cells; format: cell-based, human; settings: gene expression; for fold induction at 1 µM: Homo sapiens, HepG2, 1 μM Apomine vs ethanol vehicle control
Description: HepG2 cells were grown in Dulbecco's modified Eagle medium (DMEM) supplemented with 10% FBS. Cells were harvested when they were about 80-90% confluent and were directly subjected to RNA isolation. Treated cells were incubated with 1 μM Apomine and control cells were incubated with a volume of ethanol used as vehicle for the Apomine.
DNA microarray slides used in this study were fabricated in the microarray core facilities at the Arizona Cancer Center (Calaluce et al., 2001). Each slide has 5760 spots divided into 4 blocks. Each block contains the same 8 ice plant genes from Mesembryanthemum crystallinum and 23 different housekeeping genes as references for data normalization. Overall, each slide has 5289 unique human cDNA sequences.
Poly(A)^+ RNA was directly isolated from cell pellets using the FastTrack 2.0 Kit (Invitrogen, Carsbad, Calif.) following the instruction manual provided by the manufacturer. Each RNA sample was inspected by denaturing agarose gel electrophoresis to ensure the quality of the preparation. Labeling and purification of cDNA probes were carried out using the MICROMAX direct cDNA microarray system (NEN Life Science Products, Boston, Mass.). Two to four micrograms of the poly(A)+ RNA samples were used for each labeling. Probes for Apomine treated HepG2 cells were labeled with Cyanine 5 (Cy5) and probes for HeLa cell was labeled with Cyanine 3 (Cy3). For investigation of control Hep2G cells, these cells were labeled with Cy3 and probes for HeLa cells were labeled with Cy5. Purified cDNA probes were dried and dissolved in 15 μL of Hybridization Buffer (included in the MICROMAX direct cDNA microarray system kit). The probes were then denatured by heating at 95° C. for 2 min and applied to the array area of a pre-denatured microarray slide. The microarray slide was covered with a […] slide cover slip and incubated in a HybChamber (GeneMachines, San Carlos, Calif.) at 62° C. for overnight. On the second day, the slide was washed in 0.5×SSC, 0.01% SDS for 5 min, 0.06×SSC, 0.01% SDS for 5 min, and 0.06×SCC for 2 min. Finally, the slide was dried by spinning at 500 g for 1 min and scanned in a dual-laser (635 nm for red fluorescent Cy5 and 532 nM for green fluorescent Cy3) microarray scanner (GenePix 4000, Axon Instruments, Foster City, Calif.).
Fluorescence intensities for both dyes (Cy3 and Cy5) and local background subtracted values for individual spots were obtained using the GenePix 4000 microarray scanner and accompanying software (Axon Instruments, Foster City, Calif.). The data were imported into Microsoft Excel spreadsheets for analysis. Defective spots, i.e., ones that are sub-standard on the scanned image or have negative background subtracted values, were first filtered. To minimize the effects of measurement variations introduced by artificial sources during experiments, only spots that had significant signals in both channels were included. The determination of this significance is based on signal intensities of non-homologous ice plant genes. Generally, if the signal intensity of a spot is less than the average of ice plant spots, the signal was considered as non-significant. In this analysis the significance cutoff for signal to background ratio as 1.4 was determined empirically. Thus, a spot was excluded in further analysis if it has a signal to background ratio less than 1.4 in both channels. For each spot, the median of ratios (the median of the pixel-by-pixel ratios of pixel intensities that have the median background intensity subtracted) was used in subsequent analysis. Spots representing housekeeping genes were used to normalize the entire slide so that all slides can be compared directly. For each pancreatic cell line, at least two hybridizations were carried out. The average of median ratios from replicates was calculated for each spot. […]

[2] = Percutaneous absorption of Apomine: plasma level after topical application; format: in vivo, female Swiss nude (nu/nu) mice; settings: female, Swiss nude (nu/nu), mouse, three hours after the last application
Description: Plasma concentrations of Apomine are measured with a Hewlett Packard gas chromatograph using a nitrogen phosphorus detector and HP-5 15 m×0.32 mm column. Alberts et al., 2001). Apomine is extracted from plasma with methyl t-butyl ether (MTBE). To 250 μl of plasma sample, 10 μl of a methanolic solution of the internal standard (n-propyl phoposhonate analog of Apomine) at a final concentration of 4 μg/ml are added and mixed by vortexing. The compound and internal standard are extracted with 500 μl MTBE and 30 sec vigorous shaking. The organic layer obtained by centrifugation (5 min at 13,000 rpm) is dried under nitrogen and reconstituted in 250 μl MTBE of which 2 μl is injected with an autoampler for analysis. A calibration curve is established with plasma from untreated mice spiked with different concentrations of Apomine. The calibration curve is used to interpolate the concentrations of Apomine in the samples using the peak area ratio values.
Apomine (1 mg) was topically applied to five to six week old female Swiss nude (nu/nu) mice by application of 20 μl of a 50 mg/ml solution of Apomine in acetone. Treatment was continued daily for 24 days. Three hours after the last application the mice were sacrificed and plasma Apomine levels were measured. The plasma concentration was 1.12±0.10 μg/ml plasma (n=6), which is 2 μM Apomine. […]

[3] = patients, 75 mg/m^2 twice a day orally for 14 days; cited from earlier work

CC(C)OP(=O)(OC(C)C)C(Cc1cc(C(C)(C)C)c(O)c(C(C)(C)C)c1)P(=O)(OC(C)C)OC(C)C [Apomine, tetraisopropyl 2-(3,5-di-tert-butyl-4-hydroxyphenyl)-ethylidene-1,1-diphosphonate]
Fold induction, Procollagen, type III ([1]; 1 μM Apomine vs ethanol vehicle control): 6.49 fold | fold induction at 1 µM ([1]; read-out: Fold induction, Collagen, type I, alpha 2): 1.65 | fold induction at 1 µM ([1]; read-out: Fold induction, Collagen, type II, alpha 1): 5.5 | fold induction at 1 µM ([1]; read-out: Fold induction, Collagen, type IV, alpha 4): 1.7 | fold induction at 1 µM ([1]; read-out: Fold induction, Collagen, type IX, alpha 3): 1.4 | fold induction at 1 µM ([1]; read-out: Fold induction, Collagen, type V, alpha 1): 1.42 | fold induction at 1 µM ([1]; read-out: Fold induction, Collagen, type VI, alpha 2): 2.4 | fold induction at 1 µM ([1]; read-out: Fold induction, Collagen, type VI, alpha 3): 1.16 | fold induction at 1 µM ([1]; read-out: Fold induction, Collagen, type XI, alpha 1): 2.66 | fold induction at 1 µM ([1]; read-out: Fold induction, Procollagen, type III): > 6 | concentration at 3 h ([2]; 1 mg topically (20 μl of 50 mg/ml in acetone) daily for 24 days, n=6): 1120 ± 100 ng/mL | concentration at 3 h ([2]; 1 mg topically daily for 24 days): 2000 nM | adverse effects [3]: no adverse effects

Source: patent US20050232891A1, “Methods of treating skin with diphosphonate derivatives” (ILEX Products Inc., priority 2001, published 2005)
